This note sets out measurements from ChEMBL document CHEMBL1136686 (Bioorg Med Chem Lett, 2003).

Each structure is given as a SMILES string.

Test [1] concerns the target T1, Progesterone receptor (Homo sapiens, UniProt P06401).
T1 sequence (P06401 whole entry): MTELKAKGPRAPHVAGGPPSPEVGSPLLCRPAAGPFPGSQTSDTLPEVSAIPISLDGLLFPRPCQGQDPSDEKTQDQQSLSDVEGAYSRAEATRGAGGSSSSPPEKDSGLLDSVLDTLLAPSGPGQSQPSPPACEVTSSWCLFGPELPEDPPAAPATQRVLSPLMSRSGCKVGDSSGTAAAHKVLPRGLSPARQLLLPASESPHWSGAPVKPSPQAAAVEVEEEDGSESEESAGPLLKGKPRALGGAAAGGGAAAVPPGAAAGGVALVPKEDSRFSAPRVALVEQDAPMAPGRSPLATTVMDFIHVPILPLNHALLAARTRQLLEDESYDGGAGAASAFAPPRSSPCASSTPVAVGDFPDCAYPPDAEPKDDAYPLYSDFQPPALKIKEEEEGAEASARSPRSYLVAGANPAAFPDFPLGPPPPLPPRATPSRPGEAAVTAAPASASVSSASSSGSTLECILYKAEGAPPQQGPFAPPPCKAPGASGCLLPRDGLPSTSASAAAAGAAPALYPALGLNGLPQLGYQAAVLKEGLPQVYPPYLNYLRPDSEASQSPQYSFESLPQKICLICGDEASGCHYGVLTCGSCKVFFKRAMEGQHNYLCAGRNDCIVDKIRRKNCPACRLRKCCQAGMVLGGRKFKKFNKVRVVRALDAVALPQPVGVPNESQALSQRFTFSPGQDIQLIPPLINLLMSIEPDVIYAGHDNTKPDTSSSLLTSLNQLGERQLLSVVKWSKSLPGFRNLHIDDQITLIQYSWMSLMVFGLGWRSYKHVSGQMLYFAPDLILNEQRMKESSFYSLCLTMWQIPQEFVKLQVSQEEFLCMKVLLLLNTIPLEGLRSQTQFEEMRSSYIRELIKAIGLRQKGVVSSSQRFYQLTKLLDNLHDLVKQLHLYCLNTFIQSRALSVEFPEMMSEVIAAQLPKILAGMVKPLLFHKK
The experiment in a line: Effective concentration on alkaline phosphatase activity in human T47D breast carcinoma cell line. In kind it is functional, cell-based.

Test [2] concerns the target T1, Progesterone receptor. The experiment in a line: Inhibition of [3H]P4 to progesterone receptor (PR) of human T47D breast carcinoma cells. In kind it is cell-based.
Test [3] has as its target T1, Progesterone receptor. Kind of test: Inhibition of [3H]P4 binding at progesterone receptor of human T47D breast carcinoma cells. The test is classed as cell-based.
Test [4] addresses T2, Progesterone receptor (Rattus norvegicus) (UniProt Q63449).
T2 sequence (whole entry): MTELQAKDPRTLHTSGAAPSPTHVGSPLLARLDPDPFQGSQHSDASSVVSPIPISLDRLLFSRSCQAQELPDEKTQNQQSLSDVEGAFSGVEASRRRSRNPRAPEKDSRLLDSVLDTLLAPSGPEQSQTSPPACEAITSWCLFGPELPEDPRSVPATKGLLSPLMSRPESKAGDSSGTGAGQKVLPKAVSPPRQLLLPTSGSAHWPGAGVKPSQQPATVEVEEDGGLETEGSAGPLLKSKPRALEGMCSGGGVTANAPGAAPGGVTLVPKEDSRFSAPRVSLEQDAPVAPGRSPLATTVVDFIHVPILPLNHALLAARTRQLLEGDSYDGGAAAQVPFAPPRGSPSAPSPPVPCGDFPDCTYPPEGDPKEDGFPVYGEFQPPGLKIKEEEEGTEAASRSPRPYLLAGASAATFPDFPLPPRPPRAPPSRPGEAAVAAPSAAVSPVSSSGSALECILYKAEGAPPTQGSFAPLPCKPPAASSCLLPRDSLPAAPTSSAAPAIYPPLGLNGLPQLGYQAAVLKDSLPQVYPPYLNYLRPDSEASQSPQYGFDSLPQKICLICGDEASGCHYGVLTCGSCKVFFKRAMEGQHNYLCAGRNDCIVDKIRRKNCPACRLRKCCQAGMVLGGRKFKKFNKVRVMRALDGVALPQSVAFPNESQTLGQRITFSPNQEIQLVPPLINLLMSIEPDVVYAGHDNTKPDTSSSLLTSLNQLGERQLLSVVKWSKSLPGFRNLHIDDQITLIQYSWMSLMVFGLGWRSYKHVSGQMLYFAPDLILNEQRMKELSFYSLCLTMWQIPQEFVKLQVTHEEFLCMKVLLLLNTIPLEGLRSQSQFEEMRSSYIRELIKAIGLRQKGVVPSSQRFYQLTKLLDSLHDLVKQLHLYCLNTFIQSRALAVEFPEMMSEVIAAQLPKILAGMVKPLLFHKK
Kind of test: Effective dose on oral administration in ovariectomized female rat decidualization model. The test is classed as functional, organism-based.

Test [5] concerns the target T2, Progesterone receptor (Rattus norvegicus). Kind of test: Effective dose on subcutaneous administration in ovariectomized female rat decidualization model. In kind it is functional, organism-based.

At Progesterone receptor [1], `Cc1cc(C#N)cc(-c2ccc3c(c2)C(C)(C)OC(=S)N3)c1` had an EC50 of 200 nM. This counts as sub-micromolar.
Regarding `CN1C(=S)OC(C)(C)c2cc(-c3cccc(Br)c3)ccc21`, half-maximal inhibition against Progesterone receptor [2] (IC50) was put at 114 nM. Moreover, the EC50 on Progesterone receptor [1] is > 10000 nM.
As to `CCC1(CC)OC(=S)Nc2ccc(-c3cccc([N+](=O)[O-])c3)cc21`, the EC50 at Progesterone receptor [1] turned out to be 4.7 nM.
At Progesterone receptor [2], `CN1C(=S)OC(C)(C)c2cc(-c3cc(F)cc(Br)c3)ccc21` returned a half-maximal inhibitory concentration (IC50) of 100 nM. Also, on Progesterone receptor [1], the EC50 is > 10000 nM.
Turning to `CC1(C)OC(=S)Nc2ccc(-c3ccc(C#N)s3)cc21`, it took 0.7 nM to reach a half-maximal effect at Progesterone receptor [1] (EC50).
Still for that read-out and setting: to `CCC1(CC)OC(=S)Nc2ccc(-c3cccc(Cl)c3)cc21` belongs 7.2 nM.
On Progesterone receptor [3], `Cc1cc(Br)cc(-c2ccc3c(c2)C(C)(C)OC(=S)N3)c1` gave an IC50 of 100 nM. For the same compound, the EC50 on Progesterone receptor [1] was > 10000 nM.
For `COc1cc(C#N)cc(-c2ccc3c(c2)C(C)(C)OC(=S)N3)c1` the same measures were 100 nM and > 10000 nM.
On to `CC1(C)OC(=S)Nc2c(F)cc(-c3cc(F)cc(C#N)c3)cc21`, for which the response on Progesterone receptor [1] was half-maximal at 1000 nM (EC50).
The same measure, in the same setting: to `CC1(C)OC(=S)Nc2ccc(-c3cc(Cl)cc(C#N)c3)cc21` belongs 44.9 nM.
On the same count and under the same terms, the value for `CC1(C)OC(=S)Nc2ccc(-c3coc(C#N)c3)cc21` was 1.2 nM; that for `CC1(C)OC(=S)Nc2c(Br)cc(-c3cc(F)cc(C#N)c3)cc21` was 80.1 nM.
Take `CC1(C)OC(S)=Nc2ccc(-c3ccc(C#N)s3)cc21`: the ED50 in test [4] turned out to be 1.5 mg/kg.
`CC1(C)OC(=S)Nc2ccc(-c3cccc(F)c3F)cc21`: on Progesterone receptor [1], the EC50 worked out at 1.5 nM.
The same measure, in the same setting: to `CC1(C)OC(=S)Nc2ccc(-c3cc(Cl)cc(Cl)c3)cc21` belongs 26.5 nM; to `CC1(C)OC(=S)Nc2ccc(-c3cc(F)cc(C#N)c3)cc21`, 0.6 nM.
Same read-out and setting: the value for `CC1(C)OC(=S)Nc2ccc(-c3cccc(Br)c3)cc21` was 2.5 nM.
Take `CC1(C)OC(S)=Nc2ccc(-c3csc(C#N)c3)cc21`: the ED50 was found to be 0.22 mg/kg in test [5] and 0.62 mg/kg in test [4].
At Progesterone receptor [1], `CC1(C)OC(=S)Nc2ccc(-c3cncc(Br)c3)cc21` registered an EC50 of 5.7 nM.
The same measure, in the same setting: the value for `CC1(C)OC(=S)Nc2ccc(-c3ccc(F)c(F)c3)cc21` was 11.4 nM.
On Progesterone receptor [3], `CC1(C)OC(S)=Nc2ccc(-c3cc(C#N)cc(OC(F)(F)F)c3)cc21` displayed an IC50 of 100 nM. The EC50 at Progesterone receptor [1] was > 10000 nM.
On to `CC1(C)OC(=S)Nc2ccc(-c3cc(F)cc(Br)c3)cc21`, for which, on Progesterone receptor [1], the EC50 came to 1.7 nM.
Still for that read-out and setting: the value for `CC1OC(=S)Nc2ccc(-c3cccc(F)c3)cc21` (configuration not stated) was 300 nM; that for `CC1(C)OC(S)=Nc2ccc(-c3cc(C#N)cc(C#N)c3)cc21` was 42 nM.
For the compound `CCN1C(=S)OC(C)(C)c2cc(-c3cc(F)cc(C#N)c3)ccc21`, the midpoint of inhibition at Progesterone receptor [2], the IC50, lay at 100 nM. In addition, the EC50 on Progesterone receptor [1] is > 10000 nM.
The compound `CC1(C)OC(=S)Nc2ccc(-c3ccccc3Cl)cc21` had an EC50 on Progesterone receptor [1] of 49.8 nM. In other words, the double-digit nanomolar range.
The same measure, in the same setting: to `CC1(C)OC(=S)Nc2ccc(-c3cccc([N+](=O)[O-])c3)cc21` belongs 1.1 nM; to `C=CCC1(C)OC(=S)Nc2ccc(-c3cccc(Cl)c3)cc21` (configuration not stated), 0.3 nM; to `N#Cc1cccc(-c2ccc3c(c2)C2(CCCCC2)OC(=S)N3)c1`, 2.5 nM.
With `CC1(C)OC(S)=Nc2c(Br)cc(-c3ccc(C#N)c(F)c3)cc21`, on Progesterone receptor [1], the EC50 is > 10000 nM.
Take `CC1(C)OC(=S)Nc2ccc(-c3ccc(F)c(Cl)c3)cc21`: at Progesterone receptor [1], the EC50 came out at 79.5 nM.
Turning to `CC1(C)OC(S)=Nc2c(Br)cc(-c3ccc(Cl)c(F)c3)cc21`, the EC50 at Progesterone receptor [1] is 1000 nM. Against the preceding compound, the EC50 is about 13-fold higher.
On the same count and under the same terms, the value for `CC1(C)OC(=S)Nc2ccc(-c3cccc(Cl)c3)cc21` was 1.7 nM.
The compound `CC1(C)OC(=S)Nc2ccc(-c3ccc(C#N)o3)cc21` displayed an EC50 on Progesterone receptor [1] of 1.25 nM. The EC50 values of the last two compounds are within 1.5-fold of each other.
The same measure, in the same setting: the value for `CC1(C)OC(=S)Nc2ccc(-c3cccc(C#N)c3)cc21` was 0.4 nM; that for `CC1(C)OC(=S)Nc2ccc(-c3cc(F)cc(C(F)(F)F)c3)cc21` was 2.5 nM.
Still for that read-out and setting: to `CC1(C)OC(=S)Nc2ccc(-c3ccccc3F)cc21` belongs 11.6 nM; to `COc1cc(F)cc(-c2ccc3c(c2)C(C)(C)OC(=S)N3)c1`, 2.6 nM.
In test [4], `CC1(C)OC(S)=Nc2ccc(-c3cc(F)cc(C#N)c3)cc21` returned an ED50 of 0.1 mg/kg.
Regarding `COc1cccc(-c2ccc3c(c2)C(C)(C)OC(=S)N3)c1`, on Progesterone receptor [1], the EC50 is 7.2 nM.
On the same count and under the same terms, the value for `CC1(Cc2ccccc2)OC(=S)Nc2ccc(-c3cccc(Cl)c3)cc21` (configuration not stated) was 88.5 nM.
Compound `CC1(C)OC(=S)Nc2ccc(-c3cc(Br)cc(OC(F)(F)F)c3)cc21` returned an IC50 at Progesterone receptor [3] of 100 nM. Further, the concentration giving a half-maximal response (EC50) on Progesterone receptor [1] is > 10000 nM.
Compound `CC1(C)OC(=S)Nc2ccc(-c3cccc(F)c3)cc21` had an EC50 on Progesterone receptor [1] of 1 nM.
At Progesterone receptor [1], `CC1(C)OC(S)=Nc2ccc(-c3cc(F)cc(Cl)c3)cc21` returned an EC50 of 0.9 nM.
Still for that read-out and setting: to `CC1(c2ccccc2)OC(=S)Nc2ccc(-c3cccc(Cl)c3)cc21` (configuration not stated) belongs 5.7 nM.
Turning to `CC1(C)OC(S)=Nc2ccc(-c3cc(Br)cc(C#N)c3)cc21`, the IC50 on Progesterone receptor [3] is 100 nM. The EC50 at Progesterone receptor [1] was > 10000 nM.
In turn, `SC1=Nc2ccc(-c3cccc(Cl)c3)cc2C(Cc2ccccc2)(Cc2ccccc2)O1` came in with an EC50 on Progesterone receptor [1] of 1000 nM.
The same measure, in the same setting: the value for `CC1(C)OC(=S)Nc2ccc(-c3cc(F)cc(F)c3)cc21` was 1.5 nM.
